Experimental data taken from US20110280886A1, “TREATING CANCER BY MODULATING MNK” (UNIVERSITY HOSPITAL BASEL, priority 2008, published 2011).

Tests used:
phosphorylated eIF4E = conditions: cells transfected with Mnk2 (Mnk2a or Mnk2b) or Mnk1; cited from earlier work
LN319 cells = experiment: MTT-based cell proliferation assay, LN319 cells; set-up: species or system human; conditions: 10 μM CGP57380 with increasing amounts of rapamycin, 5 days after treatment
Method: (§1) Cell proliferation was assayed using MTT-based method 5 days after treatment. Growth in untreated cells was used as a reference. Data shown are the mean±SD values of at least three separate experiments.
(§2) Human brain tumor cell lines; BS125 and LN319 were derived from human patients. The “BS” series were generated at the University of Basel, Switzerland while the “LN” series was generated in Lausanne, Switzerland (Ishii et al., […], Brain Pathol. 9:469-79). These cells were cultured in DMEM supplemented with 10% FCS and standard antibiotics in an incubator at 37° C. and 5% CO2 humidified atmosphere. Transfection was accomplished using Lipofectamine (Invitrogen) according to the supplier's instructions. For overexpression experiments, previously reported MNK1-Flag construct (Knauf et al., 2001, Mol Cell Biol. 21:5500-11) were used. […]
(§3) For cell proliferation MTT-based assays in 96-well plates, about ˜5000 cells were seeded 1 day before drug treatment. […] The number of viable cells was measured using CellTiter 96® AQueous Non-Radioactive Cell Proliferation Assay (Promega) used according to manufacturer's instruction. In addition, cell growth was also monitored by counting cell number with a Vi-Cell XR cell viability analyzer (Beckman Coulter). […] Cells were counted every day over a 5-day period.

BS125 cells = experiment: MTT-based cell proliferation assay, BS125 cells; set-up: species or system human; conditions: 10 μM CGP57380 with increasing amounts of rapamycin, 5 days after treatment
Method: as §1, §2, §3

human Mnk2 protein = human Mnk2 protein (Homo sapiens, UniProt Q9HBH9); conditions: described in WO 02/103361; cited from earlier work
Sequence of human Mnk2 protein (Q9HBH9 whole entry): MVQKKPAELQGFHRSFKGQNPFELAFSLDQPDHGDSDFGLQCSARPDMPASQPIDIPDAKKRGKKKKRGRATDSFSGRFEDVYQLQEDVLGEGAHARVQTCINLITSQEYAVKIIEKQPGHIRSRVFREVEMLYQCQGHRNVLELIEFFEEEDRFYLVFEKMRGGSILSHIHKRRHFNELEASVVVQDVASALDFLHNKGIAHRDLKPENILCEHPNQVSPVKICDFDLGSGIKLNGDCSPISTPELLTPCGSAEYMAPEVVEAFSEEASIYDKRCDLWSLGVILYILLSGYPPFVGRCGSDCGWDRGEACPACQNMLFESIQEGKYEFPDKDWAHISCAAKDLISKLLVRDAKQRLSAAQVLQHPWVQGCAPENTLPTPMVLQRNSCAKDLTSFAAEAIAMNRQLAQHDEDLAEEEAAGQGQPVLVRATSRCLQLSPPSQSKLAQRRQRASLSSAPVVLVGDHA

Nc1ncnc2n[nH]c(Nc3ccc(F)cc3)c12 [CGP57380]
reduction of phosphorylated eIF4E (phosphorylated eIF4E): strong reduction of phosphorylated eIF4E | inhibitory effect on cell proliferation (LN319 cells): significantly increases the inhibitory effect on cell proliferation | inhibitory effect on cell proliferation (BS125 cells): significantly increases the inhibitory effect on cell proliferation

COC(=O)c1ccc(O)cc1 [4-hydroxybenzoic acid methyl ester]
binding to human Mnk2 protein (human Mnk2 protein): binds the human Mnk2 protein
